“Also recorded” adds a separate entry of the source.

These results are taken from patent US20260274794A1, “COMPOUNDS, COMPOSITIONS, AND METHOD OF INHIBITING TAU PROTEIN AND ALPHASYNUCLEIN AGGREGATION” (Purdue Research Foundation, priority 2023, published 2026).

For data set [1], the target named is T1, α-synuclein (α-syn) (Homo sapiens, UniProt P37840).
T1 construct: purchased rPeptide, LLC (Watkinsville, GA)
Briefly: Thioflavin T (ThT) fluorescence assay of α-syn fibril formation. The format is biochemical. The note with it: compound 100 μM; ThT fluorescence intensity at plateau phase, control = 100%. As for the experimental part:
ThT fluorescence is routinely established assay to follow the kinetics of α-syn fibril formation with different drug candidate treatments. Compounds were first tested at a final of concentration of 100 μM and α-syn and 2N4R tau were prepared at 2 μM and 6 μM, respectively. Compounds with highest anti-fibrillary activity were tested at 3.125, 6.25, 12.5, 25, 50, and 100 μM to obtain dose-response curves.
For the α-syn ThT assay, ThT was used at a final concentration of 20 μM. α-Syn was dissolved in 20 mM Tris-HCl (pH 7.4) supplemented with 100 mM NaCl to a stock solution of 280 μM (1 mg/250 μL) prior to resuspension in ThT buffer to obtain a final concentration of 2 μM. Compounds and ThT were first added to the wells. The kinetics of fibril formation begin when the α-syn was solubilized in the ThT buffer (10 mM PBS buffer (pH 7.4), supplemented with 0.5 mM SDS and 300 mM NaCl) and added to a non-treated black 96 well microplate with a transparent flat bottom. Each well was filled with a maximum volume of 150 μL buffer with one 3 mm borosilicate bead. The background fluorescence signal consisted of ThT in buffer and 0.25% DMSO without α-syn. The excitation and emission wavelengths were set at 440 and 485 nm, respectively, with a Synergy HT multi-mode microplate reader (BioTek, Winooski, VT). Measurements were taken at 37° C. every 20 minutes over 50 hours of shaking prior to reading the plate. Samples were measured in three replicates and the experiments were repeated three times using different α-syn stock solutions. For each time point, the background fluorescence signal was subtracted. Arbitrary units of fluorescence were calculated from the mean values normalized against the maximum value in each completed assay. Arbitrarily, the maximum value (100%) for the fluorescence intensity was established for α-syn.
Compounds were tested at 100 μM with α-syn at 6 μM, resulting in a molar ratio of approximately 1:16 (protein:compound). The plateau phase of sigmoidal kinetics is of particular interest because it is the phase in which mature fibrils form and where aggregation and disaggregation are at equilibrium with each other; therefore, the fluorescence intensity between multiple compounds at the plateau phase can be compared to identify the compounds with the most promising anti-aggregation activity (Table 1, column α-syn ThT %). […] Compound 17 was the best representative of the 5-aminoindole series and moved to the tier-2 assays, even though the resulting ThT percentage of fluorescence intensity was 10% higher than the cut off. These compounds were then tested on tau 2N4R ThT fluorescence assays.

Data set [2] has as its target α-syn (Homo sapiens, UniProt P37840). In words: Transmission electron microscopy of α-syn fibrils. The note with it: 60 μM α-syn: 600 μM compound, 24-hours exposure. Type of data set: biochemical. As for the experimental part: (§1) For the examination of ultrastructural changes, 60 μM of proteins (α-syn and tau isoform 2N4R) in contact with DMSO or 600 μM of compound were incubated in a 10 mM PBS buffer (pH 7.4) for 24 h at 37° C. (molar ratio 1:10). Samples at the end of tau ThT kinetics of fibril formation were also analyzed at similar molar ratio with 6 time less concentrated samples. For the preparation of grids prior examination, a volume of 10 μL if each sample was applied on a 400-mesh Formvar-carbon-coated copper grid (Electron Microscopy Sciences, Hatfield, PA). The grids were incubated for 1 minute with the sample and after washed three times with distilled water, After being air-dried, a fresh solution of 1% uranyl acetate was applied for 1 minute. Solution was absorbed with filter paper and grids were air-dried. Evaluation of grids were performed using a transmission microscope (JEOL 1400 Flash, Japan). Transmission electron micrographs were captured using an accelerating voltage of 100 kV and magnification of 40 k.
(§2) To confirm that the reduction of ThT fluorescence observed with compounds 2, 8, and 17 was due to the reduction in protein fibrillization rather than interference with ThT [31], transmission electron microscopy (TEM) of α-syn and tau isoform 2N4R with these same compounds was utilized to visualize direct changes in α-syn and tau isoform 2N4R fibril morphology after 24-hours exposure (FIG. 5). […] Results were reproduced using the tau isoform 2N4R and different compounds at the above-mentioned higher concentrations using the identical molar ratio and incubation time. […] Compound 2 was the only candidate resulting in a grid quasi exempt of fibrils.

For data set [3], the target named is T2, tau isoform 2N4R (Homo sapiens, UniProt P10636).
T2 construct: made in house; host or cells: E. coli BL21 (DE3), vector pRK172
In words: Transmission electron microscopy of tau isoform 2N4R fibrils. Type of data set: biochemical. The following applies: compound 100 μM, 50-hours exposure; reproduced at higher concentrations, molar ratio 1:10. As for the experimental part:
as §1, §2

For data set [4], the system named is M17D-TR/αS-3K::YFP neuroblastoma cells. Briefly: α-Syn inclusion assay in dox-inducible neuroblastoma cells. The format is cell-based. The note with it: for reduction of inclusions: lower concentrations (below 40 μM). As for the experimental part: Dox-inducible neuroblastoma cells M17D-TR/αS-3K::YFP were used according to the published experimental procedure. For this cell-based assay, the cellular density consisted of 30,000 cells per well in a 96-well plate format. After 24 h of seeding the plates, compounds were introduced at ranging concentrations of 5 to 40 μM for a period of 24 h. After, the induction of the αS-3K::YFP transgene expression was initiated by adding dox (1 ug per mL, final concentration in culture media). Cells were incubated in the Incucyte Zoom 2000 platform (Essen Biosciences), where the acquisition of images (green, bright field) occurred continuously. After 48 hours of induction, inclusion formation and cell growth were assessed. To determine the level of different proteins by western blotting, α-syn monoclonal antibody 41312 (Thermofisher, Waltham, MA; 1:1000) and GAPDH polyclonal antibody (Sigma-Aldrich, St. Louis, MO, G9545; 1:5000) were used.
To evaluate the effects of compounds on inclusion formation and cell survival, M17D neuroblastoma cells that express an α-syn-derived αS-3K::YFP fusion protein in a doxycycline-inducible fashion were used. The cells were treated with 0.1% DMSO (control) and compounds 13, 2, 8, and 17 at various concentrations at t=24 hrs. Cells were induced with dox at t=48 hours. Punctate YFP signals were measured and normalized to 0.1% DMSO at t=96 hours. Eight independent experiments (N=8; n=14; except DMSO, n=30) were performed. The familial PD-linked α-syn missense mutation E46K is amplified by α-syn E35K+E46K+E61K (=αS3K), which results in round cytoplasmic α-syn-based inclusions in cultured cells. αS3K expression is responsible for cell stress/toxicity and delayed growth of neuroblastoma cells. […] Therefore, this assay was selected to evaluate the effect of the compound 13, as a weak to non-inhibitor of aggregation, and the three best anti-aggregation inhibitors, namely compounds 2, 8, and 17 (FIG. 6). […] Western blot analyses for total α-syn, normalized to calnexin (loading control), were performed to determine the compound effect on α-syn protein level due to degradation or non-specific effect on transgene expression.

Data set [5] can be described thus: Kinetics of solubility in ThT buffer. Type of data set: physicochemical. The following applies: ThT buffer: 1×PBS pH 7.4, 300 mM NaCl, 0.5 mM SDS. As for the experimental part: Kinetics of solubility analysis was performed at the MSU Medicinal Chemistry Core facility.

T2 sequence (P10636 1-441 isoform P10636-8): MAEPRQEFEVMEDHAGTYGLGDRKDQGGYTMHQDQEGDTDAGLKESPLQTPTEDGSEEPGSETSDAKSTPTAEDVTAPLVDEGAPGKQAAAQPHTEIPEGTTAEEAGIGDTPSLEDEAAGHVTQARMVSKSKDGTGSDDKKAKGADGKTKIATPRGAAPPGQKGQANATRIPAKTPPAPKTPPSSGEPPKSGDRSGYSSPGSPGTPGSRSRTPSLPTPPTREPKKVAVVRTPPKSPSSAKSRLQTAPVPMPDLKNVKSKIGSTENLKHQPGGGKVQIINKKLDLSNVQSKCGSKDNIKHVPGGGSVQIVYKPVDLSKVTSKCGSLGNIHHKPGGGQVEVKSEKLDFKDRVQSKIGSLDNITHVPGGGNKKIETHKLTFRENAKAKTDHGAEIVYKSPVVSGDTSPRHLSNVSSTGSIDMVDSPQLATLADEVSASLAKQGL

The term remaining activity denotes what remains of the control signal, in per cent. Regarding `O=C(Nc1cccc2[nH]ccc12)c1ccccc1` [Compound 2, N-(1H-indol-4-yl)benzamide], in data set [1], the remaining activity at 100 µM was no more than 30%. Also, the “α-syn fibril morphology (TEM)” value in data set [2] is listed as “clear effect in reducing α-syn fibrillization”. The “tau isoform 2N4R fibril morphology (TEM)” value in data set [3] is “levels of tau fibril at 20 μM were reduced; also recorded: Fewer and not well-defined fibrils”. Besides, in data set [4], the reduction of inclusions entry is given as “None of these compounds exhibited a significant reduction of inclusions”. Moreover, in data set [5], the “Measured Solubility” value is greater than 300 µM.

Regarding `O=C(Nc1cccc2[nH]ccc12)c1ccc(F)cc1` [Compound 8, 4-fluoro-N-(1H-indol-4-yl)benzamide], the remaining activity at 100 µM in data set [1] was no more than 30%. Besides, the “α-syn fibril morphology (TEM)” value in data set [2] is “clear effect in reducing α-syn fibrillization; also recorded: most drastic effect, with immature fibrils surrounded by irregular globular structures”. In addition, the “tau isoform 2N4R fibril morphology (TEM)” value in data set [3] is given as “levels of tau fibril at 20 μM were reduced”. Moreover, the “toxicity (confluence)” value in data set [4] (40 μM) is listed as “small degree of toxicity”. In addition, in data set [4] (40 μM, M17D αS3K cells), the inclusion formation entry is “reduced inclusion formation”. In data set [4] (low concentration (5-10 μM) only), the “α-syn protein level (Western blot)” value is “reduced α-syn levels”. Moreover, the reduction of inclusions entry in data set [4] is “None of these compounds exhibited a significant reduction of inclusions”. The “Measured Solubility” value in data set [5] is greater than 300 µM.

With `O=C(Nc1ccc2[nH]ccc2c1)c1ccccc1Cl` [Compound 13, 2-chloro-N-(1H-indol-5-yl)benzamide], the remaining activity at 100 µM in data set [1] is 73.7 ± 5.6%. Also, in data set [2], the “α-syn fibril morphology (TEM)” value is given as “mature fibrils after 24 hours”. For the same compound, the “tau isoform 2N4R fibril morphology (TEM)” value in data set [3] is recorded as “long fibrils admixed with amorphous materials and/or debris”. For the same compound, the reduction of inclusions entry in data set [4] was “None of these compounds exhibited a significant reduction of inclusions”. Also, in data set [5], the “Measured Solubility” value is greater than 300 µM.
